Laboratory results reported in EP4534085A1, “COMPOUNDS FOR USE IN METHODS OF TREATING CANCER” (Scorpion Therapeutics, Inc., priority 2023, dated 2025).
Like-named read-outs stand apart in the source and are kept apart here.

Columns and labels:
[1] = format: in vivo
[2] = Free CNS penetration (Kp,uu), rat brain slice method; format: in vivo, mice and rats; details: oral dosing; rat brain slice method for free fraction in brain; osimertinib run in parallel as benchmark
Procedure: In order to characterise compound A in vitro and in vivo potency and selectivity for C797S-active double-mutant inhibitor vs. EGFR wild type, compound A was assessed in vitro and in vivo across a variety of engineered or endogenously occurring single (ex19del or L858R) or double (ex19del/C797S or L858R/C797S) mutant systems. In addition, the CNS exposure of compound A was also characterised using a gold-standard rat brain slice method to assess free exposure in brain tissue.
Compound A is an EGFR inhibitor of formula I(a). Compound A was tested across a panel of in vitro biochemical, cell signalling, and proliferation assays for potency against EGFR L858R and ex19del single mutants and/or the corresponding C797S double mutants. Additionally, compound A was tested for in vivo activity in mice bearing human NSCLC cell line xenografts NCI-H3255 (L858R) and PC-9 (ex19del), and in a PC-9-derived ex19del/C797S double mutant knock-in xenograft. Free CNS penetration (Kp,uu) was determined in nontumour bearing mice and rats. Osimertinib and/or gefitinib were used as benchmark molecules across assays.

MDR1 = molecular target: T1, MDR1 (Homo sapiens, UniProt P08183); experiment: MDCK-MDR1 efflux; format: in vitro ADME; details: dog, read-out: MDCK-MDR1 ER
T1 construct: expressed in transfected cells; host or cells: MDCK
T1 sequence (P08183 whole entry): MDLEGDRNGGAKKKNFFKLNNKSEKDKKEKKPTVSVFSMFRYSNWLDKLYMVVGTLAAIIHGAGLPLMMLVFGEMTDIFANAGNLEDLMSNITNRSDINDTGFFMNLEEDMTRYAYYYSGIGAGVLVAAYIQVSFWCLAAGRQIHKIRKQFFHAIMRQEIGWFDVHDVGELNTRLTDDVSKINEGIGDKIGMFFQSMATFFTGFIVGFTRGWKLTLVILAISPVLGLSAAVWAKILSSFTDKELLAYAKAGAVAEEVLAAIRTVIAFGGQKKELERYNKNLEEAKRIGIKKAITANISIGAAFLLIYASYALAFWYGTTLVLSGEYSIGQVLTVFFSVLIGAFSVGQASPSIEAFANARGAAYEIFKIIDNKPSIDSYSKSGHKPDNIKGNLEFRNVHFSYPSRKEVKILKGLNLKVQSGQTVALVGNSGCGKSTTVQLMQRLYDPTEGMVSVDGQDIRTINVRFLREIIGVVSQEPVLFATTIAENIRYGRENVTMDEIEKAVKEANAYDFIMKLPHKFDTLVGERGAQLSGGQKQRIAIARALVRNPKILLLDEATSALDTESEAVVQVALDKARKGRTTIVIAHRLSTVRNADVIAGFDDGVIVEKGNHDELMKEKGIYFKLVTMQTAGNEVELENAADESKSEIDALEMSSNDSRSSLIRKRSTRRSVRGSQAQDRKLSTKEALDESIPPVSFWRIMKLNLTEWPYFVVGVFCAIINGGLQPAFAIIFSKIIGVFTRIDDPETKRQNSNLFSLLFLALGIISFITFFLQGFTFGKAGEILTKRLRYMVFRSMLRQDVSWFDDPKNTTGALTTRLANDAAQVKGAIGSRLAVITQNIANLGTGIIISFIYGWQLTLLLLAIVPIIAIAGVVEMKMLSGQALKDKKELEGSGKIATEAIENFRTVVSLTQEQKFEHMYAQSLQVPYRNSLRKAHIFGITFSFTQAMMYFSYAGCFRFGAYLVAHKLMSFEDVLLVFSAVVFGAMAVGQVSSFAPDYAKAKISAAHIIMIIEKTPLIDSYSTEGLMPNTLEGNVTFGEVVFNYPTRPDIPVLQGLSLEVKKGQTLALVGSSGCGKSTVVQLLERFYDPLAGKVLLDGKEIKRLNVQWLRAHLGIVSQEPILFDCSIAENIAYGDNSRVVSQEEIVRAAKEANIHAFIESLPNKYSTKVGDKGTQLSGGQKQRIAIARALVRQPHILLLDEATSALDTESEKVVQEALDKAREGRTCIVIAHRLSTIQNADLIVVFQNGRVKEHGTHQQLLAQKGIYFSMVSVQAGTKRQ

[3] = test system: PC-9 derivative with an ex19del/C797S in cis double mutation; experiment: C797S double mutant knock-in xenograft, tumour growth inhibition; details: 15 mg/kg BID, PC-9 ex19del/C797S xenograft
Text: (§1) A PC-9 derivative with an ex19del/C797S in cis double mutation was engineered by CRISPR knock-in.

[4] = Caco-2 in vitro permeability (efflux ratio); format: in vitro ADME; details: human, read-out: CAco-2 ER
NCI-H3255 (L858R) = experiment: L858R human tumour xenograft, tumour growth inhibition; details: 5-15 mg/kg BID; L858R human tumour xenografts in mice
Text: as §1

BCRP = molecular target: T2, BCRP (Homo sapiens, UniProt Q9UNQ0); experiment: MDCK-BCRP efflux; format: in vitro ADME; details: dog, read-out: MDCK-BCRP ER
T2 construct: expressed in transfected cells; host or cells: MDCK
T2 sequence (Q9UNQ0 1-655): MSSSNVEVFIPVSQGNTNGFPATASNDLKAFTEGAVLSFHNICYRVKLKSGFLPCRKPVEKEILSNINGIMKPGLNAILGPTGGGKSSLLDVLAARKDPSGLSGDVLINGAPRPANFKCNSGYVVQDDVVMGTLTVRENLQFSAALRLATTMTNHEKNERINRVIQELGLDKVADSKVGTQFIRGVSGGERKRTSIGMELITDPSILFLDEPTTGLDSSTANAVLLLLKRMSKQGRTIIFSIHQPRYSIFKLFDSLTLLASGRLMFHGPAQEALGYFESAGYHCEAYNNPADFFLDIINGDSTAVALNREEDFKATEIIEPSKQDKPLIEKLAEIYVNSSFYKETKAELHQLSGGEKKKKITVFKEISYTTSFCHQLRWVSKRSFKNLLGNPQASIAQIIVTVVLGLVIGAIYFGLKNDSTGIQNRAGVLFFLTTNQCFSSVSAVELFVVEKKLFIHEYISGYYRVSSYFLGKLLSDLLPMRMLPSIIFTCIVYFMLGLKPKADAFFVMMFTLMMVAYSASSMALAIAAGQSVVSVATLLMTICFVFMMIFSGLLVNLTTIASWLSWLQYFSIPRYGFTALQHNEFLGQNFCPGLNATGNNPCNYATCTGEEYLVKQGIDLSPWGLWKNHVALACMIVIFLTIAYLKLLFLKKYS

[5] = test system: pEGFR (phosphorylated EGFR, Tyr1068); experiment: pEGFR (Tyr1068) inhibition, AlphaLISA; details: compared with gefitinib
Text: as §1

[6] = test system: Ba/F3 lines expressing the noted EGFR constructs; experiment: Ba/F3 proliferation inhibition (CellTiterGlo, 72 hr assay); format: cell-based
human NSCLC cell lines = experiment: Human cancer cell line proliferation inhibition (CellTiterGlo); format: cell-based
pEGFR = experiment: PC-9 (ex19del) PK/PD study, pEGFR pharmacodynamic readout; format: in vivo; details: 15 mg/kg single dose, over a 12-hour BID dosing window
PC-9 (ex19del) = experiment: ex19del human tumour xenograft, tumour growth inhibition
Text: as §1

COCC[C@H]1CNC(=O)c2c1[nH]c(-c1ccnc(C)n1)c2Nc1cccc(Cl)c1OC [Compound A]
tolerability ([1]; 15 mg/kg BID or 50 mg/kg QD in mice): well tolerated | tolerability ([1]; 5-15 mg/kg BID, mice): well tolerated | brain exposure Kp,uu [2]: comparable to Osimertinib | efflux ratio at 1 µM (MDR1): 0.95 | in vivo tumour growth inhibition in the presence of C797S [3]: retained in vivo tumour growth inhibition | in vivo tumour growth inhibition in the presence of C797S ([3]; listed as compound A): no drop-off in antitumour activity | efflux ratio at 1 µM [4]: 1.76 | tumour growth inhibition (TGI) (NCI-H3255 (L858R)): ≥ 90% | efflux ratio at 1 µM (BCRP): 1.17 | selectivity for all tested EGFR mutant cell lines relative to EGFR wild-type cell line NCI-H2073 (pEGFR inhibition IC50) [5]: exceeded that of gefitinib | inhibition of L858R, ex19del, L858R/C797S and ex19del/C797S mutants in proliferation assays ([6]; engineered Ba/F3): high picomolar to low nanomolar | selectivity for all tested mutants relative to wild-type EGFR ([6]; engineered Ba/F3 cells): > 150 x | inhibition of L858R, ex19del, L858R/C797S and ex19del/C797S mutants in proliferation assays (human NSCLC cell lines; human NSCLC cell lines): high picomolar to low nanomolar | selectivity for all tested mutants relative to wild-type EGFR (human NSCLC cell lines; human cancer cells): > 150 x | inhibition at 15 mg/kg (pEGFR): > 50% | tumour growth inhibition (TGI) (PC-9 (ex19del); 5-15 mg/kg BID, ex19del human tumour xenografts in mice): ≥ 90% | antitumour activity in EGFR single mutant xenografts (PC-9 (ex19del); EGFR single mutant xenografts (ex19del or L858R), 15 mg/kg BID or 50 mg/kg QD in mice): regression
